Laboratory results from patent US6746850B2 (priority 2000, dated 2004).
Values joined by “and” are separate entries in the source; they are usually repeats but may differ in a detail not shown here. Equal entries are not always repeated.

Assays:
[1] = molecular target: T1, AChE (Cavia porcellus, UniProt D3YE96); type: biochemical, Hartley guinea pig
[2] = molecular target: T2, BChE (Cavia porcellus, UniProt H0V4F8); type: biochemical, Hartley guinea pig
[3] = molecular target: T1, AChE; details: guinea pig, in vivo
[4] = molecular target: T2, BChE; type: biochemical, Hartley guinea pig; remark: listed apart in the source
[5] = molecular target: T1, AChE; type: biochemical, Hartley guinea pig; remark: listed apart in the source
[6] = molecular target: AChE (Rattus norvegicus, UniProt P37136); type: biochemical, Sprague Dawley rat
[7] = tested on: BChE; type: biochemical, Rhesus monkey
[8] = molecular target: AChE (Macaca mulatta, UniProt A0A5F7ZPE9); type: biochemical, Rhesus monkey
[9] = molecular target: AChE (Homo sapiens, UniProt P22303); type: biochemical
[10] = molecular target: BChE (Rattus norvegicus, UniProt Q9JKC1); type: biochemical, Sprague Dawley rat
[11] = molecular target: BChE (Homo sapiens, UniProt P06276); type: biochemical

Structure (SMILES)	AChE Coefficient (sensitivity coefficient) Value [6]	BChE Coefficient (sensitivity coefficient) Value [7]	AChE Coefficient (sensitivity coefficient) Value [8]	AChE Coefficient (sensitivity coefficient) Value [9]	BChE Coefficient (sensitivity coefficient) Value [10]	BChE Coefficient (sensitivity coefficient) Value [11]	other results
C[n+]1ccccc1C=NO [2-PAM]	–	–	–	–	–	–	effect on AChE [1]: inhibited; effect on BChE [2]: relatively unaffected
CN(C)C(=O)Oc1ccc[n+](C)c1 [PB, pyridostigmine bromide]	–	–	–	–	–	–	peak inhibition time [3]: about 30 minutes
C/C=C1\[C@H]2C=C(C)C[C@]1(N)c1ccc(=O)[nH]c1C2 (racemic) [rac Hup-A, Racemic huperzine-A]	–	–	–	–	–	–	BChE Average [4]: 0.907 U/mL and 0.930 U/mL and 0.913 U/mL and 0.929 U/mL and 0.912 U/mL and 0.892 U/mL
CCCC(=O)SCC[N+](C)(C)C.[I-] [BTC, butyrylthiocholine iodide]	0 mAbs/min/[blood]	661 mAbs/min/[blood]	0 mAbs/min/[blood]	82 mAbs/min/[blood]	62 mAbs/min/[blood]	1466 mAbs/min/[blood]	AChE Coefficient (sensitivity coefficient) Value [5]: 0 mAbs/min/[blood]
CCC(=O)SCC[N+](C)(C)C.[I-] [PTC, propionylthiocholine iodide]	158 mAbs/min/[blood]	514 mAbs/min/[blood]	844 mAbs/min/[blood]	1071 mAbs/min/[blood]	134 mAbs/min/[blood]	1417 mAbs/min/[blood]	–
